According to publication PMC9103105 (2022):

What was measured:
[1] = system: Mut2 (DNA, aptamer) GATCGGGTGTGGGTGGCGTAAAGGGAGCATCGG; assay: fluorescence anisotropy titration; settings: 100 mM Na+ (acetate), 10 mM MgCl2, 10 mM CaCl2; 20 mM Tris-acetate pH 8.4, room temperature
[2] = system: aptamer 1.12.2 (DNA, aptamer) GATCGGGTGTGGGTGGCGTAAAGGGAGCATCGGACA; assay: fluorescence anisotropy titration; settings: 100 mM Na+ (acetate), 10 mM MgCl2, 10 mM CaCl2; 20 mM Tris-acetate pH 8.4, room temperature
[3] = system: aptamer–ssDNA {6–15} complex (DNA, duplex) GATCGGGTGTGGGTGGCGTAAAGGGAGCATCGGACA/CACCCACACC; assay: circular dichroism; settings: 100 mM Na+ (acetate), 10 mM MgCl2, 10 mM CaCl2; 20 mM Tris-acetate pH 8.4, room temperature; 1 µM complex, up to 10 µM OTA
[4] = system: aptamer 1.12.2 (DNA, aptamer) GATCGGGTGTGGGTGGCGTAAAGGGAGCATCGGACA; assay: ITC; settings: 100 mM Na+ (acetate), 10 mM MgCl2, 10 mM CaCl2; 20 mM Tris-acetate pH 8.4, 25 °C; one-site model
[5] = system: aptamer 1.12.2 (DNA, aptamer) GATCGGGTGTGGGTGGCGTAAAGGGAGCATCGGACA; assay: fluorescence anisotropy competition; settings: 100 mM Na+ (acetate), 10 mM MgCl2, 10 mM CaCl2, 20 mM Tris-acetate pH 8.4, 90 nM aptamer

## C[C@@H]1Cc2c(Cl)cc(C(=O)N[C@@H](Cc3ccccc3)C(=O)NCc3c(O)ccc4c3Oc3cc(O)ccc3C43OC(=O)c4ccccc43)c(O)c2C(=O)O1 (stereo partly drawn)
[1]
  KD: 192 nM
[2]
  KD: 183 ± 14 nM

## C[C@@H]1Cc2c(Cl)cc(C(=O)N[C@@H](Cc3ccccc3)C(=O)O)c(O)c2C(=O)O1
[3]
  binding: no
[4]
  KD: 131 ± 32 nM
[5]; tracer 5 nM OTA-Flu displaced
  L50: 106.2 ± 6.4 nM
[5]; tracer OTA-Flu displaced
  KI: 36.3 ± 2.1 nM
